Laboratory results taken from patent publication US6133292A, “Diaryl-5-alkyl-5-methyl-2-(5H)-furanones as selective cyclooxygenase-2-inhibitors” (Merck Frosst Canada & Co., priority 1998, dated 2000).

Legend:
COX-2 = molecular target: T1, COX-2 (Homo sapiens, UniProt P35354); assay: Whole cell assay for COX-2 using CHO transfected cell line (CHO [hCOX-2]); type: cell-based; parameters: expressed in transfected cells; host or cells: Chinese hamster ovary (CHO) cells, stably transfected, CHO[hCOX-2]; details: CHO[hCOX-2] cells, 10 μM AA; read-out: CHO Cox-2 (IC50, inhibition of PGE2 production)
T1 sequence (P35354 18-604): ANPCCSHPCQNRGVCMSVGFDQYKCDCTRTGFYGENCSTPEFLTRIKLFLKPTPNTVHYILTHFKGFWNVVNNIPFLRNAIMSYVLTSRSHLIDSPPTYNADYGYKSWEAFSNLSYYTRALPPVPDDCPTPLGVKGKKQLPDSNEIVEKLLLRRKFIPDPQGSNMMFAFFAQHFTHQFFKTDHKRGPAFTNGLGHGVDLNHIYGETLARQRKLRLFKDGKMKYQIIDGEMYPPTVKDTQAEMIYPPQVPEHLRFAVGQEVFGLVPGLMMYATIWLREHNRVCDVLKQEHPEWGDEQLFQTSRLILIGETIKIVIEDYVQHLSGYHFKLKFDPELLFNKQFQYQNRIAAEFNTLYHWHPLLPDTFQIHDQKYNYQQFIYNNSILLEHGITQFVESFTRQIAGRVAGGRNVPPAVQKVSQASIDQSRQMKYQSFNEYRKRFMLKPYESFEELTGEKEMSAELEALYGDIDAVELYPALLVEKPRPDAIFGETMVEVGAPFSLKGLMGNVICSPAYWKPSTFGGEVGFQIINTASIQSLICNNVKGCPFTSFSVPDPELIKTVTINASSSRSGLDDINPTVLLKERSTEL
From the text: Whole cell assays for COX-2 and COX-1 using CHO transfected cell lines
Chinese hamster ovary (CHO) cell lines which have been stably transfected with an eukaryotic expression vector pCDNAIII containing either the human COX-1 or COX-2 cDNA's are used for the assay. These cell lines are referred to as CHO [hCOX-1] and CHO [hCOX-2], respectively. For cyclooxygenase assays, CHO[hCOX-1] cells from suspension cultures and CHO[hCOX-2] cells prepared by trypsinization of adherent cultures are harvested by centrifugation (300 x g, 10 min) and washed once in HBSS containing 15 mM HEPES, pH 7.4, and resuspended in HBSS, 15 mM HEPES, pH 7.4, at a cell concentration of 1.5×10^6 cells/ml. Drugs to be tested are dissolved in DMSO to 66.7-fold the highest test drug concentration. Compounds are typically tested at 8 concentrations in duplicate using serial 3-fold serial dilutions in DMSO of the highest drug concentration. Cells (0.3×10^6 cells in 200 μl) are preincubated with 3 μl of the test drug or DMSO vehicle for 15 min at 37° C. Working solutions of peroxide-free AA (5.5 μM and 110 μM AA for the CHO [hCOX-1] and CHO [COX-2] assays, respectively) are prepared by a 10-fold dilution of a concentrated AA solution in ethanol into HBSS containing 15 mM HEPES, pH 7.4. Cells are then challenged in the presence or absence of drug with the AA/HBSS solution to yield a final concentration of 0.5 μM AA in the CHO[hCOX-1] assay and a final concentration of 10 μM AA in the CHO[hCOX-2] assay. The reaction is terminated by the addition of 10 μl 1 N HCl followed by neutralization with 20 μl of 0.5 N NaOH. The samples are centrifuged at 300 x g at 4° C. for 10 min, and an aliquot of the clarified supernatant is appropriately diluted for the determination of PGE2 levels using an enzyme-linked immunoassay for PGE2 (Correlate PGE2 enzyme immunoassay kit, Assay Designs, Inc.). Cyclooxygenase activity in the absence of test compounds is determined as the difference in PGE2 levels of cells challenged with arachidonic acid versus the PGE2 levels in cells mock-challenged with ethanol vehicle. Inhibition of PGE2 synthesis by test compounds is calculated as a percentage of the activity in the presence of drug versus the activity in the positive control samples.
(§1) Compounds of the present invention are inhibitors of COX-2 and are thereby useful in the treatment of COX-2 mediated diseases as enumerated above. The activities of the compounds against cyclooxygenase may be seen in the representative results shown below. In the assay, inhibition is determined by measuring the amount of prostaglandin E2 (PGE2) synthesized in the presence of arachidonic acid, COX-1 or COX-2 and a putative inhibitor. The IC50 values represent the concentration of putative inhibitor required to lower PGE2 synthesis to 50% of that obtained as compared to the uninhibited control.

COX-1 = COX-1 (Homo sapiens, UniProt P23219); assay: Assay of COX-1 activity from U937 cell microsomes; type: biochemical; parameters: Assay of COX-1 Activity from U937 cell microsomes; endogenous in cells; host or cells: U937 cells, 100,000 x g microsomal fraction; details: read-out: U937 Cox-1 (IC50, inhibition of PGE2 production)
Chain of COX-1 (P23219 24-599): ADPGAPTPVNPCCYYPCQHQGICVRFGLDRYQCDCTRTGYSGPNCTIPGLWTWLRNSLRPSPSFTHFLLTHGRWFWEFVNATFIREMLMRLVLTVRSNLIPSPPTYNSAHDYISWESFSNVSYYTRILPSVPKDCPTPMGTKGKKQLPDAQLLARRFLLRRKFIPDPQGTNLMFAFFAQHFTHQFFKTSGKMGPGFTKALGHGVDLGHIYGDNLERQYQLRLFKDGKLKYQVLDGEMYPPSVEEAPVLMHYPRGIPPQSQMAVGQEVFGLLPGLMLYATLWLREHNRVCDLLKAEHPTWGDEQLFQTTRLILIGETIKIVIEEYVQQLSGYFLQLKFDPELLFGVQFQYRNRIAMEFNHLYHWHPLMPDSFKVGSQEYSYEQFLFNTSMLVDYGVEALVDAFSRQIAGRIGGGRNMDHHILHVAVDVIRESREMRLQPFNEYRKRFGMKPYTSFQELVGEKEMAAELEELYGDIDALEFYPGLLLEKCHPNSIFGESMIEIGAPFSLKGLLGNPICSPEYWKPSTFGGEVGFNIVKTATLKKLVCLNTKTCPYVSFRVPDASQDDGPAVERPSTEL
Protocol: Assay of COX-1 Activity from U937 cell microsomes
U 937 cells are pelleted by centrifugation at 500 x g for 5 min and washed once with phosphate-buffered saline and repelleted. Cells are resuspended in homogenization buffer consisting of 0.1 M Tris-HCl, pH 7.4, 10 mM EDTA, 2 μg/ml leupeptin, 2 μg/ml soybean trypsin inhibitor, 2 μg/ml aprotinin and 1 mM phenyl methyl sulfonyl fluoride. The cell suspension is sonicated 4 times for 10 sec and is centrifuged at 10,000 x g for 10 min at 4° C. The supernatant is centrifuged at 100,000 x g for 1 hr at 4° C. The 100,000 x g microsomal pellet is resuspended in 0.1 M Tris-HCl, pH 7.4, 10 mM EDTA to approximately 7 mg protein/mil and stored at -80° C.
Microsomal preparations are thawed immediately prior to use, subjected to a brief sonication, and then diluted to a protein concentration of 125 μg/ml in 0.1 M Tris-HCl buffer, pH 7.4 containing 10 mM EDTA, 0.5 mM phenol, 1 mM reduced glutathione and 1 μM hematin. Assays are performed in duplicate in a final volume of 250 μl. Initially, 5 μl of DMSO vehicle or drug in DMSO are added to 20 μl of 0.1 M Tris-HCl buffer, pH 7.4 containing 10 mM EDTA in wells of a 96-deepwell polypropylene titre plate. 200 μl of the microsomal preparation are then added and pre-incubated for 15 min at room temperature before addition of 25 μl of […] arachidonic acid in […] Tris-HCl and 10 mM EDTA, pH 7.4. Samples are incubated for 40 min at room temperature and the reaction is stopped by the addition of 25 μl of 1 N HCl. Samples are neutralized with 25 μl of 1 N NaOH prior to quantitation of PGE2 content by radioimmunoassay (Dupont-NEN or Amersham assay kits). Cyclooxygenase activity is defined as the difference between PGE2 levels in samples incubated in the presence of arachidonic acid and ethanol vehicle.
as §1

SMILES | IC50 (COX-2) [µM] | IC50 (COX-1) [µM]
CC1(C)OC(=O)C(c2ccc(F)cc2)=C1c1ccc(S(C)(=O)=O)cc1 [Compound T3-1, 3-(4-fluorophenyl)-5,5-dimethyl-4-[4-(methylsulfonyl)phenyl]-2,5-dihydro-2-furanone, reference compound] | 0.042 | 5.8
CCC1(C)OC(=O)C(c2ccc(F)cc2)=C1c1ccc(S(C)(=O)=O)cc1 (stereo not shown) [c, 5-ethyl-3-(4-fluorophenyl)-5-methyl-4-[4-(methylsulfonyl)phenyl]-2,5-dihydro-2-furanone] | 0.022 | 7.4
CC[C@]1(C)OC(=O)C(c2ccc(F)cc2)=C1c1ccc(S(C)(=O)=O)cc1 [d, (5S)-5-ethyl-3-(4-fluorophenyl)-5-methyl-4-[4-(methylsulfonyl)phenyl]-2,5-dihydro-2-furanone] | 0.057 | 3.2
CC[C@@]1(C)OC(=O)C(c2ccc(F)cc2)=C1c1ccc(S(C)(=O)=O)cc1 [e, (5R)-5-ethyl-3-(4-fluorophenyl)-5-methyl-4-[4-(methylsulfonyl)phenyl]-2,5-dihydro-2-furanone] | 0.02 | 6.2
CC[C@@]1(C)OC(=O)C(c2ccc(F)c(F)c2)=C1c1ccc(S(C)(=O)=O)cc1 [h, (5R)-3-(3,4-difluorophenyl)-5-ethyl-5-methyl-4-[4-(methylsulfonyl)phenyl] -2,5-dihydro-2-furanone] | 0.051 | 24.8
CC[C@]1(C)OC(=O)C(c2ccc(F)c(F)c2)=C1c1ccc(S(C)(=O)=O)cc1 [i, (5S)-3-(3,4-difluorophenyl)-5-ethyl-5-methyl-4-[4-(methylsulfonyl)phenyl] -2,5-dihydro-2-furanone] | 0.042 | 13.4
CCCC1(C)OC(=O)C(c2ccc(F)cc2)=C1c1ccc(S(C)(=O)=O)cc1 (stereo not shown) [n, 3-(4-fluorophenyl)-5-methyl-4-[4-(methylsulfonyl)phenyl]-5-propyl-2,5-dihydro-2-furanone] | 0.194 | > 10
CCCC1(C)OC(=O)C(c2cccc(F)c2)=C1c1ccc(S(C)(=O)=O)cc1 (stereo not shown) [o, 3-(3-fluorophenyl)-5-methyl-4-[4-(methylsulfonyl)phenyl]-5-propyl-2,5-dihydro-2-furanone] | 0.692 | > 10
CCCC1(C)OC(=O)C(c2ccc(F)c(F)c2)=C1c1ccc(S(C)(=O)=O)cc1 (stereo not shown) [p, 3-(3,4-difluorophenyl)-5-methyl-4-[4-(methylsulfonyl)phenyl]-5-propyl-2,5-dihydro-2-furanone] | 0.237 | > 10
CCC1(CC)OC(=O)C(c2ccccc2)=C1c1ccc(S(C)(=O)=O)cc1 [t, 5,5-diethyl-4-[4-(methylsulfonyl)phenyl]-3-phenyl-2,5-dihydro-2-furanone, reference compound] | > 5 | > 10
CCC1(CC)OC(=O)C(c2ccc(F)cc2)=C1c1ccc(S(C)(=O)=O)cc1 [u, 5,5-diethyl-3-(4-fluorophenyl)-4-[4-(methylsulfonyl)phenyl]-2,5-dihydro-2-furanone, reference compound] | > 5 | > 10
